The values that follow come from patent US9376391B2, “Difluoromethyl-nicotinic-tetrahydronaphthyl carboxamides as fungicides” (BAYER CROPSCIENCE AKTIENGESELLSCHAFT, priority 2012, dated 2016).

The subject of one series is Sphaerotheca fuliginea. Briefly: In vivo preventive test on Sphaerotheca fuliginea (powdery mildew on cucurbits). In short, it runs like this: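 Gherkin plants at Z11 cotyledon stage were sprayed with compound in acetone/tween/DMSO/water. After 24 h they were inoculated with S. fuliginea spores (100 000 spores per ml) and incubated at about 20° C and 70-80% RH. Percent efficacy versus solvent-treated controls was scored 12 days post-inoculation.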

The test system of a further series is Septoria tritici. In words: In vivo preventive test on Septoria tritici (leaf spot on wheat). The following applies: 500 ppm, preventive spray, wheat plants, grading 24 days after contamination. In short, it runs like this:
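Wheat cv. Scipion sprayed preventively at 1-leaf stage; inoculated 24 h later with Septoria tritici spores (500 000 spores per ml). Incubation 72 h at 18 °C, 100% RH, then 21 days at 90% RH; % efficacy graded 24 days after contamination against solvent-treated controls.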

For a further series, the system named is Phakopsora pachyrhizi. Briefly: Phakopsora test (soybeans)/preventive. The following applies: 100 ppm of active ingredient, evaluated 7 days after inoculation. The format is in vivo. The procedure: Phakopsora Test (Soybeans)/Preventive
(§1) To produce a suitable preparation of active compound, 1 part by weight of active compound is mixed with the stated amounts of solvent and emulsifier, and the concentrate is diluted with water to the desired concentration.
To test for preventive activity, young plants are sprayed with the preparation of active compound at the stated rate of application. After the spray coating has dried on, the plants are inoculated with an aqueous spore suspension of the causal agent of soybean rust (Phakopsora pachyrhizi) and stay for 24 h without light in an incubation cabinet at approximately 24° C. and a relative atmospheric humidity of 95%.
The plants remain in the incubation cabinet at approximately 24° C. and a relative atmospheric humidity of approximately 80% and a day/night interval of 12 h.
The test is evaluated 7 days after the inoculation. 0% means an efficacy which corresponds to that of the untreated control, while an efficacy of 100% means that no disease is observed.

For another series, the system named is Puccinia recondita. In words: In vivo preventive test on Puccinia recondita (brown rust on wheat). In short, it runs like this: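 Wheat seedlings ("Scipion") sprayed with compound at the 1-leaf stage, inoculated 24 h later with Puccinia recondita spores (100 000 spores per ml). Incubated 24 h at 20° C and 100% RH, then 10 days at 20° C and 70-80% RH. Efficacy (%) versus solvent-treated controls graded 12 days after contamination.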

For the next series, the system named is Botrytis cinerea. Briefly: In vivo preventive test on Botrytis cinerea (grey mould), gherkin plants. In short, it runs like this:
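Gherkin plants sprayed at Z11 cotyledon stage with compound in acetone/tween/DMSO/water, inoculated 24 h later with B. cinerea spores (50 000 spores per ml) in nutrient solution. Kept at 17° C., 90% relative humidity; % efficacy graded 4 to 5 days post-inoculation versus solvent-treated controls.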

Another series relates to Uromyces appendiculatus. In words: In vivo preventive test on Uromyces appendiculatus (bean rust). The following applies: 500 ppm, preventive spray, bean plants, grading 11 days after contamination. In short, it runs like this: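 'Saxa' bean plants at the 2-leaf stage were sprayed with compound and inoculated 24 h later with U. appendiculatus spores (150 000 spores per ml). Plants were incubated 24 h at 20 °C and 100% RH, then 10 days at 20 °C and 70–80% RH. Percent efficacy versus solvent-treated controls was graded 11 days post-inoculation.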

The subject of the next series is Venturia inaequalis. In words: Venturia test (apples)/preventive. The format is in vivo. Conditions: 100 ppm of active ingredient, evaluated 10 days after inoculation. The procedure: Venturia Test (Apples)/Preventive
as §1
To test for preventive activity, young plants are sprayed with the preparation of active compound at the stated rate of application. After the spray coating has dried on, the plants are inoculated with an aqueous conidia suspension of the causal agent of apple scab (Venturia inaequalis) and then remain for 1 day in an incubation cabinet at approximately 20° C. and a relative atmospheric humidity of 100%.
The plants are then placed in a greenhouse at approximately 21° C. and a relative atmospheric humidity of approximately 90%.
The test is evaluated 10 days after the inoculation. 0% means an efficacy which corresponds to that of the untreated control, while an efficacy of 100% means that no disease is observed.

The nature of series [1]: log P by HPLC on reversed phase columns (EEC directive 79/831 Annex V.A8). The format is physicochemical. The following applies: Table 1, formula (I); HPLC/LC-MS at pH 2.7, 0.1% formic acid in water / acetonitrile, gradient 10% to 95%.
Setting [2] is: dose 100 ppm of active ingredient, comparison with known compounds.
Where [3] appears, read: dose 100 ppm, comparison with known compounds, same conditions.

As to `CC1CC(C)(C)c2cccc(NC(=O)c3cccnc3C(F)F)c21` (centres unmarked) [Example 1], the Eff. % worked out at 100% in the series on Sphaerotheca fuliginea (500 ppm, preventive spray, gherkin plants, grading 12 days after contamination); 100% in the series with Septoria tritici; 99% in the series with Phakopsora pachyrhizi; 100% in the series on Puccinia recondita (dose 500 ppm, wheat, spray, graded 12 days after contamination vs control plants); 100% in the series on Botrytis cinerea (dose 500 ppm, gherkin, spray, graded 4 to 5 days after contamination vs control plants); 100% in the series with Uromyces appendiculatus. In the series with Venturia inaequalis, this compound displayed an Eff. % of 100%. Further, the “protection (in words)” value in the series with Sphaerotheca fuliginea (setting [2]), in the series on Puccinia recondita (setting [2]) and in the series with Botrytis cinerea (setting [2]) was “total protection” each time. The Efficacy is given as 100% with Sphaerotheca fuliginea (dose 100 ppm, comparison with prior-art compounds, gherkin plants, grading 12 days after contamination); 100% in the series on Puccinia recondita (setting [3]); 100% in the series with Botrytis cinerea (setting [3]). Besides, the “logP^[a]” value in series [1] was 3.29^[a].
